# Measured values: patent US20230233576A1, “ECLITASERTIB FOR USE IN TREATING CONDITIONS INVOLVING SYSTEMIC HYPERINFLAMMATORY RESPONSE” (priority 2020, published 2023)
# Tested on: laboratory markers of severe COVID-19 (D-dimer, leukocytes, lymphocytes, neutrophil to lymphocyte ratio, ferritin, LDH)
# Test: Phase 1b severe COVID-19 study: laboratory markers of severe COVID-19
# Format: in vivo, human
# Conditions: for D-Dimer relative change from baseline, RIPK1 Inhibitor vs placebo, point estimate / Ferritin relative change from baseline, RIPK1 Inhibitor vs placebo, point estimate / Lactate Dehydrogenase relative change from baseline, RIPK1 Inhibitor vs placebo, point estimate / Leukocytes relative change from baseline, RIPK1 Inhibitor vs placebo, point estimate / Lymphocytes relative change from baseline, RIPK1 Inhibitor vs placebo, point estimate / Neutrophils/Lymphocytes (RATIO) relative change from baseline, RIPK1 Inhibitor vs placebo, point estimate: MMRM; for D-Dimer relative change from baseline, RIPK1 Inhibitor vs placebo, point estimate / Ferritin relative change from baseline, RIPK1 Inhibitor vs placebo, point estimate / Lactate Dehydrogenase relative change from baseline, RIPK1 Inhibitor vs placebo, point estimate / Leukocytes relative change from baseline, RIPK1 Inhibitor vs placebo, point estimate / Lymphocytes relative change from baseline, RIPK1 Inhibitor vs placebo, point estimate / Neutrophils/Lymphocytes (RATIO) relative change from baseline, RIPK1 Inhibitor vs placebo, point estimate / D-Dimer: point estimate of the relative change from baseline (geometric mean) / D-Dimer: point estimate of the relative change from baseline displayed as percent change / Ferritin: point estimate of the relative change from baseline (geometric mean) / Ferritin: point estimate of the relative change from baseline displayed as percent change / Lactate Dehydrogenase: point estimate of the relative change from baseline (geometric mean) / Lactate Dehydrogenase: point estimate of the relative change from baseline displayed as percent change / Leukocytes: point estimate of the relative change from baseline (geometric mean) / Leukocytes: point estimate of the relative change from baseline displayed as percent change / Lymphocytes: point estimate of the relative change from baseline (geometric mean) / Lymphocytes: point estimate of the relative change from baseline displayed as percent change / Neutrophils/Lymphocytes (RATIO): point estimate of the relative change from baseline (geometric mean) / Neutrophils/Lymphocytes (RATIO): point estimate of the relative change from baseline displayed as percent change: LOCF, Efficacy population
# Source text: For clinical assessment, the variables associated with endpoints were: • main inflammatory marker CRP • Oxygenation saturation and oxygen delivery (e.g. SpO2, SpO2/FiO2), Laboratory markers of severe COVID-19 including D-dimer, lactate dehydrogenase (LDH), ferritin and hematology laboratory (white blood cell count, differential blood lymphocytes, neutrophil to lymphocyte ratio) • Clinical status of participant (7-point ordinal scale) • Thrombolytic and vasopressor treatments
# Other secondary clinical assessment endpoints included: • Number of Days without need for oxygen support and alive (oxygen saturation≥92% breathing room air) up to Day 28 • Numbers of Ventilator-free days and alive up to Day 28 • Change from baseline in markers of inflammation (White blood cell count, differential blood lymphocytes, neutrophil to lymphocyte ratio, IL-6) and D-Dimer at Day 7 and EOT • Incidence of Deaths up to Day 28 • Percentage of participants receiving thrombolytic treatment up to Day 28 • Percentage of participants receiving vasopressor treatment up to Day 28 • Numbers of Respiratory Failure-Free Days (RFFD) and alive up to Day 28
# Exploratory clinical assessments endpoints included: • Change from baseline in ferritin and LDH at Day 7 and EOT • Proportion of participants per category of the 7-point clinical scale at EOT • Time to improvement by 2 points in category of 7-point clinical scale • Quantitative SARS-COV-2 viral load in blood at baseline and on Day 3, 5, 7 and EOT
# The relative changes from baseline in laboratory markers of severe COVID-19 were analyzed for the two treatment groups and for the treatment comparison of RIPK1 Inhibitor versus placebo, at Day 7 and EOT (Table 22, Table 23, Table 24). See also FIGS. 14, 15, 16, 17, 18, and 19.
smiles,measurement,setting,value
"CN1C(=O)[C@@H](NC(=O)c2nnc(Cc3ccccc3)[nH]2)COc2cccnc21 [RIPK1 Inhibitor, (S)-5-benzyl-N-(5-methyl-4-oxo-2,3,4,5-tetrahydropyrido[3,2-b][1,4]oxazepin-3-yl)-4H-1,2,4-triazole-3-carboxamide]","D-Dimer relative change from baseline, RIPK1 Inhibitor vs placebo, point estimate","600 mg, Day 7",0.88
same,"Ferritin relative change from baseline, RIPK1 Inhibitor vs placebo, point estimate","600 mg, Day 7",0.96
same,"Lactate Dehydrogenase relative change from baseline, RIPK1 Inhibitor vs placebo, point estimate","600 mg, Day 7",0.80
same,"Leukocytes relative change from baseline, RIPK1 Inhibitor vs placebo, point estimate","600 mg, Day 7",0.87
same,"Lymphocytes relative change from baseline, RIPK1 Inhibitor vs placebo, point estimate","600 mg, Day 7",1.02
same,"Neutrophils/Lymphocytes (RATIO) relative change from baseline, RIPK1 Inhibitor vs placebo, point estimate","600 mg, Day 7",0.65
same,difference with RIPK1 Inhibitor versus placebo for ferritin,"600 mg, Day 7 and EOT",No differences
same,"D-Dimer relative change from baseline, RIPK1 Inhibitor vs placebo, point estimate","600 mg, EOT",1.07
same,"Ferritin relative change from baseline, RIPK1 Inhibitor vs placebo, point estimate","600 mg, EOT",0.98
same,"Lactate Dehydrogenase relative change from baseline, RIPK1 Inhibitor vs placebo, point estimate","600 mg, EOT",0.85
same,"Leukocytes relative change from baseline, RIPK1 Inhibitor vs placebo, point estimate","600 mg, EOT",1.03
same,"Lymphocytes relative change from baseline, RIPK1 Inhibitor vs placebo, point estimate","600 mg, EOT",1.03
same,"Neutrophils/Lymphocytes (RATIO) relative change from baseline, RIPK1 Inhibitor vs placebo, point estimate","600 mg, EOT",0.67
same,D-Dimer: point estimate of the relative change from baseline (geometric mean),Day 03,1.00
same,D-Dimer: point estimate of the relative change from baseline displayed as percent change,Day 03,−0.31%
same,Ferritin: point estimate of the relative change from baseline (geometric mean),Day 03,3.43
same,Ferritin: point estimate of the relative change from baseline displayed as percent change,Day 03,242.68%
same,Lactate Dehydrogenase: point estimate of the relative change from baseline (geometric mean),Day 03,2.42
same,Lactate Dehydrogenase: point estimate of the relative change from baseline displayed as percent change,Day 03,141.68%
same,Leukocytes: point estimate of the relative change from baseline (geometric mean),Day 03,6.10
same,Leukocytes: point estimate of the relative change from baseline displayed as percent change,Day 03,509.93%
same,Lymphocytes: point estimate of the relative change from baseline (geometric mean),Day 03,1.35
same,Lymphocytes: point estimate of the relative change from baseline displayed as percent change,Day 03,34.70%
same,Neutrophils/Lymphocytes (RATIO): point estimate of the relative change from baseline (geometric mean),Day 03,2.01
same,Neutrophils/Lymphocytes (RATIO): point estimate of the relative change from baseline displayed as percent change,Day 03,100.80%
same,D-Dimer: point estimate of the relative change from baseline (geometric mean),Day 05,1.04
same,D-Dimer: point estimate of the relative change from baseline displayed as percent change,Day 05,4.10%
same,Ferritin: point estimate of the relative change from baseline (geometric mean),Day 05,2.91
same,Ferritin: point estimate of the relative change from baseline displayed as percent change,Day 05,191.34%
same,Lactate Dehydrogenase: point estimate of the relative change from baseline (geometric mean),Day 05,2.23
same,Lactate Dehydrogenase: point estimate of the relative change from baseline displayed as percent change,Day 05,122.59%
same,Leukocytes: point estimate of the relative change from baseline (geometric mean),Day 05,6.14
same,Leukocytes: point estimate of the relative change from baseline displayed as percent change,Day 05,513.77%
same,Lymphocytes: point estimate of the relative change from baseline (geometric mean),Day 05,1.43
same,Lymphocytes: point estimate of the relative change from baseline displayed as percent change,Day 05,42.51%
same,Neutrophils/Lymphocytes (RATIO): point estimate of the relative change from baseline (geometric mean),Day 05,1.89
same,Neutrophils/Lymphocytes (RATIO): point estimate of the relative change from baseline displayed as percent change,Day 05,89.49%
same,D-Dimer: point estimate of the relative change from baseline (geometric mean),Day 07,0.96
same,D-Dimer: point estimate of the relative change from baseline displayed as percent change,Day 07,−3.52%
same,Ferritin: point estimate of the relative change from baseline (geometric mean),Day 07,2.80
same,Ferritin: point estimate of the relative change from baseline displayed as percent change,Day 07,179.61%
same,Lactate Dehydrogenase: point estimate of the relative change from baseline (geometric mean),Day 07,2.10
same,Lactate Dehydrogenase: point estimate of the relative change from baseline displayed as percent change,Day 07,110.26%
same,Leukocytes: point estimate of the relative change from baseline (geometric mean),Day 07,6.15
same,Leukocytes: point estimate of the relative change from baseline displayed as percent change,Day 07,514.60%
same,Lymphocytes: point estimate of the relative change from baseline (geometric mean),Day 07,1.52
same,Lymphocytes: point estimate of the relative change from baseline displayed as percent change,Day 07,51.69%
same,Neutrophils/Lymphocytes (RATIO): point estimate of the relative change from baseline (geometric mean),Day 07,1.74
same,Neutrophils/Lymphocytes (RATIO): point estimate of the relative change from baseline displayed as percent change,Day 07,74.47%
same,D-Dimer: point estimate of the relative change from baseline (geometric mean),Day 15,0.96
same,D-Dimer: point estimate of the relative change from baseline displayed as percent change,Day 15,−3.71%
same,Ferritin: point estimate of the relative change from baseline (geometric mean),Day 15,2.66
same,Ferritin: point estimate of the relative change from baseline displayed as percent change,Day 15,166.34%
same,Lactate Dehydrogenase: point estimate of the relative change from baseline (geometric mean),Day 15,2.05
same,Lactate Dehydrogenase: point estimate of the relative change from baseline displayed as percent change,Day 15,104.58%
same,Leukocytes: point estimate of the relative change from baseline (geometric mean),Day 15,6.60
same,Leukocytes: point estimate of the relative change from baseline displayed as percent change,Day 15,560.21%
same,Lymphocytes: point estimate of the relative change from baseline (geometric mean),Day 15,1.63
same,Lymphocytes: point estimate of the relative change from baseline displayed as percent change,Day 15,63.48%
same,Neutrophils/Lymphocytes (RATIO): point estimate of the relative change from baseline (geometric mean),Day 15,1.66
same,Neutrophils/Lymphocytes (RATIO): point estimate of the relative change from baseline displayed as percent change,Day 15,65.55%
